Test results: patent EP1149104B1, “PYRROLOBENZODIAZEPINE CARBOXYAMIDE VASOPRESSIN AGONISTS” (Wyeth, priority 1999, dated 2000)

System: vasopressin V2 receptors
Experiment: Vasopressin V2 agonist effects in normal conscious water-loaded rats
Format: in vivo
Settings: oral dose of 10 mg/Kg, urine collected for four hours, Sprague-Dawley (CD) rats; for Changes in Urinary Osmolality: osmolality changes expressed as percent of control; for Urine Volume (% decrease): percent decrease in urine volume vs. control
Excerpt: Vasopressin V2 Agonist Effects of Test Compounds in Normal Conscious Water-Loaded Rats:
Male or female normotensive Sprague-Dawley rats (Charles River Laboratories, Inc., Kingston, NY) of 350-500 g body weight were supplied with standard rodent diet (Purina Rodent Lab. Chow 5001) and water ad libitum. On the day of test, rats were placed individually into metabolic cages equipped with devices to separate the feces from the urine and containers for collection of urine. A test compound or a reference agent was given at an oral dose of 10 mg/Kg in a volume of 10 mL/Kg. The vehicle used was 20% dimethylsulfoxide (DMSO) in 2.5% preboiled corn starch. Thirty minutes after dosing the test compound, rats were gavaged with water at 30 mL/Kg into the stomach using a feeding needle. During the test, rats were not provided with water or food. Urine was collected for four hours after dosing of the test compound. At the end of four hours, urine volume was measured. Urinary osmolality was determined using a Fiske One-Ten Osmometer (Fiske Associates, Norwood, MA, 02062) or an Advanced CRYOMATIC Osmometer, Model 3C2 (Advanced Instruments, Norwood, MA). Determinations of Na^+, K^+- and Cl^- ion were carried out using ion specific electrodes in a Beckman SYNCHRON EL-ISE Electrolyte System analyzer. The urinary osmolality should increase proportionally. In the screening test, two rats were used for each compound. If the difference in the urine volume of the two rats was greater than 50%, a third rat was used.

SMILES	Changes in Urinary Osmolality	Urine Volume (% decrease)
Cn1ccc2cc(C(=O)N3Cc4cccn4Cc4ccccc43)ccc21 [Example 1, (5H-10,11-Dihydro-pyrrolo [2,1-c][1,4]benzodiazepin-10-yl)-(1-methyl-1H-indol-5-yl)-methanone]	174% of control	66
O=C(c1ccc2c(c1)OCO2)N1Cc2cccn2Cc2ccccc21 [Example 2, Benzo[1,3]dioxol-5-yl-(5H-10,11-dihydro-pyrrolo [2,1-c][1-4]benzodiazepin-10-yl)-methanone]	41% of control	23
O=C(c1ccc2c(c1)CCO2)N1Cc2cccn2Cc2ccccc21 [Example 3, (2,3-Dihydro-benzofuran-5-yl)-(5H-10,11-dihydro-pyrrolo[2,1-c][1,4]benzodiazepin-10-yl)-methanone]	10% of control	32
O=C(c1ccc2ncsc2c1)N1Cc2cccn2Cc2ccccc21 [Example 4, (Benzothiazol-6-yl)-(5H-10,11-dihydro-pyrrolo[2,1-c][1,4]benzodiazepin-10-yl)-methanone]	3% of control	19
